Experimental data as given in patent US10780101B2, “Amide derivatives of squalamine for the treatment of infections” (VIRBAC, priority 2016, dated 2020).
≈ marks a conversion by molar mass, not a printed value. Like-named read-outs stand apart in the source and are kept apart here.

Legend:
[1] = tested on: S. intermedius Animal (1051997); assay: MIC determination, S. intermedius animal (1051997); type: cell-based; conditions: Staphylococcus intermedius; Gram-positive; Mueller-Hinton medium, 24 h at 37° C.
How it was run: (§1)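 MH broth, inoculum OD 0.01/well, 0.5 cascade dilution of test compound (stock 5 mg/mL, DMSO/MeOH 50:50). 37 °C, 24 h, humid. OD620 read → MIC. n=2.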

CHO-K1 cells = assay: WST1 cytotoxicity test on CHO-K1 cells; type: cell-based, Chinese hamster; conditions: Cricetulus griseus
How it was run: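 CHO-K1 cells pre-grown 24 h, then exposed to increasing compound concentrations in duplicate for 24 h at 37° C, 5% CO2. Viability read after 20 min with 10% WST-1 in PBS at 450 nm; IC50 from nonlinear regression as concentration cutting viability 50%.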

[2] = tested on: S. aureus Human ATCC 25923; assay: MIC determination, S. aureus human ATCC 25923; type: cell-based; conditions: Staphylococcus aureus, ATCC25923; Gram-positive; Mueller-Hinton medium, 24 h at 37° C.
How it was run: as §1

C. albicans = assay: Antifungal activity, cascade microdilution; type: cell-based; conditions: Candida albicans, 24 h, read-out: IC50 (μg/mL) C. albicans
[3] = CHO-K1, 24 h, read-out: IC50 (μg/mL) CHO
[4] = CHO-K1, read-out: IC50 (μg/mL) CHO

**Q.** `CC(C)NC(=O)CC[C@@H](C)[C@H]1CCC2C3C(CC[C@@]21C)[C@@]1(C)CC[C@H](NCCCNCCCNCCCN)CC1C[C@H]3O` (stereo partly drawn) [(7), 3β-norspermino-N-isopropylchenodeoxycholamide] was tested. Which MIC [1] did it give?
**A.** The MIC was 1 µg/mL (≈ 1.66 µM).

**Q.** What about the IC50 (CHO-K1 cells; [3]) of the same compound?
**A.** Its IC50 is 55 µg/mL (≈ 91.1 µM).

**Q.** And the MIC [2]?
**A.** The MIC was 4 µg/mL (≈ 6.62 µM).

**Q.** With `CC(C)NC(=O)CC[C@@H](C)[C@H]1CCC2C3CCC4C[C@@H](NCCCN(C)CCCN)CC[C@]4(C)C3C[C@H](O)[C@@]21C` (stereo partly shown) [(25)] as the compound, how does the MIC [1] read?
**A.** Its MIC is 2 µg/mL (≈ 3.57 µM).

**Q.** And the IC50 (CHO-K1 cells; [3])?
**A.** Its IC50 is 48 µg/mL (≈ 85.6 µM).

**Q.** And the MIC [2]?
**A.** The MIC was 7 µg/mL (≈ 12.5 µM).

**Q.** With `CC(C)NC(=O)CC[C@@H](C)[C@H]1CCC2C3C(CC[C@@]21C)[C@@]1(C)CC[C@H](NCCCNCCCN)CC1C[C@@H]3O` (stereo partly drawn) [(15), 3β-norspermidino-N-isopropylursodeoxycholamide] as the compound, how does the IC50 (C. albicans) read?
**A.** Its IC50 is 14 µg/mL (≈ 25.6 µM).

**Q.** What about the MIC [1] of the same compound?
**A.** The MIC was 7 µg/mL (≈ 12.8 µM).

**Q.** What about the IC50 (CHO-K1 cells; [3]) of the same compound?
**A.** Its IC50 is 140 µg/mL (≈ 256 µM).

**Q.** What about the IC50 (CHO-K1 cells; [4]) of the same compound?
**A.** The IC50 was 85 µg/mL (≈ 155 µM).

**Q.** What about the MIC [2] of the same compound?
**A.** Its MIC is 28 µg/mL (≈ 51.2 µM).

**Q.** `CC(C)NC(=O)CC[C@@H](C)[C@H]1CCC2C3C(CC[C@@]21C)[C@@]1(C)CC[C@H](NCCCN(C)CCCN)CC1C[C@H]3O` (stereo partly drawn) [(27), 3β-(bis(3-aminopropyl)methylamine)-N-isopropylchenodeoxycholamide] was tested. Which IC50 (C. albicans) did it give?
**A.** Its IC50 is 2 µg/mL (≈ 3.57 µM).

**Q.** And the MIC [1]?
**A.** Its MIC is 4 µg/mL (≈ 7.13 µM).

**Q.** What about the IC50 (CHO-K1 cells; [3]) of the same compound?
**A.** Its IC50 is 100 µg/mL (≈ 178 µM).

**Q.** What about the IC50 (CHO-K1 cells; [4]) of the same compound?
**A.** Its IC50 is 100 µg/mL (≈ 178 µM).

**Q.** What about the MIC [2] of the same compound?
**A.** The MIC was 8 µg/mL (≈ 14.3 µM).

**Q.** For `CC(C)NC(=O)CC[C@@H](C)[C@H]1CCC2C3CCC4C[C@@H](NCCCNCCCN)CC[C@]4(C)C3C[C@H](O)[C@@]21C` (stereo partly drawn) [Compound (2), 3β-norspermidino-N-isopropyldeoxycholamide], which MIC [1] is on record?
**A.** Its MIC is 1 µg/mL (≈ 1.83 µM).

**Q.** And the IC50 (CHO-K1 cells; [3])?
**A.** Its IC50 is 35 µg/mL (≈ 64 µM).

**Q.** What about the MIC [2] of the same compound?
**A.** The MIC was 4 µg/mL (≈ 7.31 µM).

**Q.** Which IC50 (C. albicans) does the source give for `CC(C)NC(=O)CC[C@@H](C)[C@H]1CCC2C3C(CC[C@@]21C)[C@@]1(C)CC[C@H](NCCCNCCCCNCCCN)CC1C[C@@H]3O` (stereo partly drawn) [Compound (35), 3β-spermino-N-isopropylursodeoxycholamide] here?
**A.** Its IC50 is 1 µg/mL (≈ 1.62 µM).

**Q.** And the MIC [1]?
**A.** Its MIC is 8 µg/mL (≈ 12.9 µM).

**Q.** What about the IC50 (CHO-K1 cells; [3]) of the same compound?
**A.** Its IC50 is 55 µg/mL (≈ 89 µM).

**Q.** And the IC50 (CHO-K1 cells; [4])?
**A.** Its IC50 is 55 µg/mL (≈ 89 µM).

**Q.** And the MIC [2]?
**A.** Its MIC is 16 µg/mL (≈ 25.9 µM).

**Q.** For `CC(C)NC(=O)CC[C@@H](C)[C@H]1CCC2C3C(CC[C@@]21C)[C@@]1(C)CC[C@H](NCCCNCCCN)CC1C[C@H]3O` (stereo partly drawn) [(8), 3β-norspermidino-N-isopropylchenodeoxycholamide], which IC50 (C. albicans) is on record?
**A.** The IC50 was 1 µg/mL (≈ 1.83 µM).

**Q.** And the MIC [1]?
**A.** The MIC was 1 µg/mL (≈ 1.83 µM).

**Q.** What about the IC50 (CHO-K1 cells; [3]) of the same compound?
**A.** Its IC50 is 50 µg/mL (≈ 91.4 µM).

**Q.** What about the IC50 (CHO-K1 cells; [4]) of the same compound?
**A.** The IC50 was 50 µg/mL (≈ 91.4 µM).

**Q.** And the MIC [2]?
**A.** Its MIC is 6 µg/mL (≈ 11 µM).

**Q.** Which results are given for `CC(C)NC(=O)CC[C@@H](C)[C@H]1CCC2C3C(C[C@H](O)[C@@]21C)[C@@]1(C)CC[C@H](NCCCNCCCN)CC1C[C@H]3O` (stereo partly drawn) [(5), 3β-norspermidino-N-isopropylcholamide]?
**A.** IC50 (C. albicans): 4 µg/mL (≈ 7.11 µM); MIC [1]: 4 µg/mL (≈ 7.11 µM); IC50 (CHO-K1 cells; [3]): 70 µg/mL (≈ 124 µM); IC50 (CHO-K1 cells; [4]): 70 µg/mL (≈ 124 µM); MIC [2]: 8 µg/mL (≈ 14.2 µM)
